Consider eight compounds from PubChem BioAssay (NCI).

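All cell lines were grown in 96-well plates and treated with compound for 48 hours. TGI denotes the concentration required for complete inhibition of growth.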

Among the test systems are ACHN renal; OVCAR-8 ovarian; RPMI-8226 leukemia; UACC-257 melanoma; OVCAR-4 ovarian; CAKI-1 renal; SK-MEL-28 melanoma; U251 CNS; NCI-H460 lung; SF-539 CNS; HOP-92 NSCLC; T-47D breast; UACC-62 melanoma; HCT-15 colon; OVCAR-3 ovarian; RXF 393 renal; HCT-116 colon; SR leukemia; OVCAR-5 ovarian; SK-MEL-2 melanoma.
Holding throughout (assay): growth of human tumour cells (NCI), 48 h

For the compound `NNC(=O)CSc1nc2ccc(I)cc2c(=O)n1Cc1ccccc1`, the TGI was 40.2 µM with ACHN renal; above 100 µM in the test with OVCAR-8 ovarian; 54.7 µM in the test on RPMI-8226 leukemia; 44 µM with UACC-257 melanoma; 71.2 µM in the test on OVCAR-4 ovarian; 40.2 µM in the test with CAKI-1 renal. The TGI in the test with SK-MEL-28 melanoma was 80.5 µM; with U251 CNS it was 40.8 µM; with NCI-H460 lung, 44.7 µM; in the test on SF-539 CNS it was 52 µM; in the test with HOP-92 NSCLC it was 57 µM; in the test with T-47D breast, above 100 µM. Also, the TGI with UACC-62 melanoma was 40.4 µM; in the test on HCT-15 colon it was above 100 µM; with OVCAR-3 ovarian, 54.9 µM; with RXF 393 renal, 26.5 µM; in the test on HCT-116 colon, 43.2 µM; in the test on SR leukemia, 61.2 µM. Also, the results for the TGI with OVCAR-5 ovarian and with SK-MEL-2 melanoma were 40.9 µM and 46 µM, respectively.
`O=C(O)c1ccccc1NC(c1ccccc1)c1ccc2cccnc2c1O` (stereo not given): the TGI in the test on ACHN renal is above 100 µM; in the test on OVCAR-8 ovarian it was above 100 µM; with RPMI-8226 leukemia, 16.9 µM; with UACC-257 melanoma it was 43.9 µM; with OVCAR-4 ovarian, 34.6 µM; with CAKI-1 renal, 50.1 µM. Besides, the TGI in the test on SK-MEL-28 melanoma is 44.2 µM; in the test with U251 CNS, 21.8 µM; with NCI-H460 lung it was 63.4 µM; with SF-539 CNS it was 22.1 µM; with HOP-92 NSCLC it was above 100 µM; with T-47D breast, 39.4 µM. The TGI in the test with UACC-62 melanoma was above 50 µM; with HCT-15 colon it was above 58.9 µM; in the test on OVCAR-3 ovarian it was 14.4 µM; in the test on RXF 393 renal, 27.7 µM; in the test with HCT-116 colon, above 64.2 µM; with SR leukemia it was above 46.8 µM. The TGI in the test on OVCAR-5 ovarian is 58 µM; in the test with SK-MEL-2 melanoma, above 100 µM.
Turning to `COc1cc(C2SC(N)=Nc3c2c(C)nn3C(=O)c2ccccc2O)cc(OC)c1OC` (stereo not given), the TGI in the test with ACHN renal, in the test on OVCAR-8 ovarian, with RPMI-8226 leukemia, with UACC-257 melanoma, with OVCAR-4 ovarian and with CAKI-1 renal was above 10 µM in each case. In addition, the TGI with SK-MEL-28 melanoma is above 10 µM; in the test with U251 CNS, above 10 µM; with NCI-H460 lung, above 10 µM; with SF-539 CNS, above 10 µM; in the test on HOP-92 NSCLC, 8.07 µM; with T-47D breast, above 10 µM. In addition, the TGI is 8.19 µM in the test with UACC-62 melanoma; above 10 µM in the test with HCT-15 colon; above 10 µM in the test on OVCAR-3 ovarian; above 10 µM in the test on RXF 393 renal; above 10 µM in the test on HCT-116 colon; above 10 µM with SR leukemia. Further, the TGI in the test on OVCAR-5 ovarian and with SK-MEL-2 melanoma was above 10 µM throughout.
For the compound `CN(C)c1ccc(/C=c2/c3ccccc3n3c2c2ccccc2[n+]3C)cc1`, the TGI came out at 2.88 µM with ACHN renal; 2.34 µM in the test on OVCAR-8 ovarian; 0.581 µM with RPMI-8226 leukemia; 1.51 µM in the test with UACC-257 melanoma; 8.3 µM with OVCAR-4 ovarian; 8.53 µM in the test on CAKI-1 renal. Further, the TGI in the test on SK-MEL-28 melanoma was 2.08 µM; in the test on U251 CNS it was 1.46 µM; in the test with NCI-H460 lung, above 38.2 µM; in the test with SF-539 CNS it was 3.12 µM; in the test with HOP-92 NSCLC it was 1.92 µM; with T-47D breast it was 1.51 µM. In addition, the TGI in the test with UACC-62 melanoma turned out to be 0.998 µM; in the test on HCT-15 colon, 2.41 µM; with OVCAR-3 ovarian it was 4.42 µM; in the test on RXF 393 renal it was 4.47 µM; in the test with HCT-116 colon, 2.74 µM; in the test on SR leukemia, 1.98 µM. In addition, the TGI in the test on OVCAR-5 ovarian turned out to be 7.43 µM; with SK-MEL-2 melanoma it was 0.782 µM.
Consider `CCOC(=O)CN1C(=O)c2c(c(C)n(-c3ccccc3)c2C)C1=O`, for which the TGI in the test with ACHN renal, in the test on OVCAR-8 ovarian, with RPMI-8226 leukemia, in the test on UACC-257 melanoma, with OVCAR-4 ovarian and in the test on CAKI-1 renal was above 100 µM in each case. The TGI in the test on SK-MEL-28 melanoma, with U251 CNS, with NCI-H460 lung, in the test with SF-539 CNS, with HOP-92 NSCLC and with T-47D breast was above 100 µM throughout. Moreover, the TGI in the test with UACC-62 melanoma, in the test with HCT-15 colon, with OVCAR-3 ovarian, in the test with RXF 393 renal, in the test with HCT-116 colon and with SR leukemia was above 100 µM each time. For the same compound, the TGI in the test on OVCAR-5 ovarian and in the test on SK-MEL-2 melanoma was above 100 µM in each case.
Regarding `O=c1cc(NCCCCCO)[nH]c(=O)[nH]1`, the TGI in the test with ACHN renal, with OVCAR-8 ovarian, in the test with RPMI-8226 leukemia, with UACC-257 melanoma, in the test on OVCAR-4 ovarian and with CAKI-1 renal was above 100 µM throughout. For the same compound, the TGI with SK-MEL-28 melanoma, in the test with U251 CNS, in the test with NCI-H460 lung, with SF-539 CNS, in the test on HOP-92 NSCLC and with T-47D breast was above 100 µM throughout. In addition, the TGI in the test on UACC-62 melanoma, in the test on HCT-15 colon, in the test with OVCAR-3 ovarian, in the test on RXF 393 renal, in the test with HCT-116 colon and in the test with SR leukemia was above 100 µM throughout. For the same compound, the TGI in the test with OVCAR-5 ovarian and in the test with SK-MEL-2 melanoma was above 100 µM in each case.
For `CO/N=C(\C)c1ccc(Nc2c3ccccc3nc3occc23)cc1`, the TGI in the test on ACHN renal is 35.2 µM; in the test on OVCAR-8 ovarian, 14.8 µM; with RPMI-8226 leukemia it was 12.1 µM; with UACC-257 melanoma, 44.1 µM; in the test with OVCAR-4 ovarian, 7.58 µM; in the test with CAKI-1 renal it was 7.15 µM. Further, the TGI amounted to 8.62 µM in the test on SK-MEL-28 melanoma; 10.9 µM with U251 CNS; 9.05 µM in the test on NCI-H460 lung; 2.28 µM in the test with SF-539 CNS; 42 µM in the test with HOP-92 NSCLC; 19.2 µM in the test with T-47D breast. Moreover, the TGI amounted to 16.3 µM in the test on UACC-62 melanoma; 13.1 µM with HCT-15 colon; 2.85 µM with OVCAR-3 ovarian; 0.877 µM with RXF 393 renal; 12.1 µM in the test on HCT-116 colon; 21.9 µM with SR leukemia. Also, the TGI in the test on OVCAR-5 ovarian is 32.2 µM; in the test with SK-MEL-2 melanoma it was 1.94 µM.
`CCOC(=O)C1(C(N)=O)C(=O)c2ccncc2C1=O` (stereo not given): the TGI in the test on ACHN renal, in the test on OVCAR-8 ovarian, in the test on RPMI-8226 leukemia, with UACC-257 melanoma, in the test on OVCAR-4 ovarian and in the test on CAKI-1 renal was above 100 µM in each case. Also, the TGI in the test on SK-MEL-28 melanoma, with U251 CNS, with NCI-H460 lung, in the test on SF-539 CNS, with HOP-92 NSCLC and with T-47D breast was above 100 µM each time. Moreover, the TGI with UACC-62 melanoma, with HCT-15 colon, in the test with OVCAR-3 ovarian, in the test with RXF 393 renal, in the test with HCT-116 colon and in the test with SR leukemia was above 100 µM throughout. The TGI in the test with OVCAR-5 ovarian and with SK-MEL-2 melanoma was above 100 µM throughout.
